The target in assay [1] is T1, Coagulation factor X (Homo sapiens, UniProt P00742). The assay is described as follows: Inhibitory activity against factor Xa.
In assay [2] the target is Prothrombin (Homo sapiens, UniProt P00734). Put plainly: Inhibitory activity against Factor IIa (serine protease) was determined.
In assay [3] the target is Serine protease 1 (Homo sapiens, UniProt P07477). The assay is described as follows: Inhibitory activity against trypsin was determined.
Assay [4] has as its target T1, Coagulation factor X. Put plainly: Inhibitory activity against Coagulation factor Xa (serine protease) was determined.
In assay [5] the target is T1, Coagulation factor X. The assay is described as follows: Inhibitory activity against factor Xa was determined.
In assay [6] the target is T1, Coagulation factor X. Put plainly: Inhibitory activity against factor Xa, activity expressed as Ki nM.

Each structure is given as a SMILES string.

Sequence of Serine protease 1 (P07477 whole entry): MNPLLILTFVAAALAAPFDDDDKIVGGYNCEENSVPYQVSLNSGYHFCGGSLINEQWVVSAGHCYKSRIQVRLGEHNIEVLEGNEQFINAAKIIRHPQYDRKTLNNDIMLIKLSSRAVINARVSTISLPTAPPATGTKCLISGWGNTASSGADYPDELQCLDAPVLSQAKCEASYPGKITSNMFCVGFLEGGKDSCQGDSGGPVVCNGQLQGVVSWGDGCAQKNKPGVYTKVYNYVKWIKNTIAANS
T1 sequence (P00742 41-179 limits assumed): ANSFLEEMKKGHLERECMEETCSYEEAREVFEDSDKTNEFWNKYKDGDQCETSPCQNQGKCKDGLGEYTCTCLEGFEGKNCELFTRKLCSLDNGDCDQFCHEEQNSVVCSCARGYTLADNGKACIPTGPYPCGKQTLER
T1 sequence (P00742 235-488 limits assumed): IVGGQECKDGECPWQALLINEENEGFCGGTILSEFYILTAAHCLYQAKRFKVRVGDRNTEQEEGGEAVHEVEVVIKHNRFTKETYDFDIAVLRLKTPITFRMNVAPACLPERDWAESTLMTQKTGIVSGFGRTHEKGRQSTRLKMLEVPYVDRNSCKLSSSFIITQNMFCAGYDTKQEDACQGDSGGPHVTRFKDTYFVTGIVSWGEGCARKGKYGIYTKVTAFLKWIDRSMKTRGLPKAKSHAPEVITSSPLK

The IC50 is the point on the concentration scale where inhibition reaches its midpoint. Read a high IC50 as weaker potency in that assay. On to `CC(=CC(=O)Nc1ccc(-c2ccccc2S(N)(=O)=O)cc1)c1cccc(C(=N)N)c1`, for which the IC50 in assay [1] is 4 nM. As to `N=C(N)c1cccc(/C(=C\C(=O)Nc2ccc(-c3ccccc3S(N)(=O)=O)cc2)c2ccco2)c1`, it took 184 nM to reach half-maximal inhibition in assay [1] (IC50). As to `C/C(=C(\F)C(=O)Nc1ccc(-c2ccccc2S(N)(=O)=O)cc1F)c1cc(C(=N)N)ccc1[N+](=O)[O-]`, the IC50 in assay [1] was 15 nM.

`N=C(N)c1ccc(F)c(C=CC(=O)Nc2ccc(-c3ccccc3S(N)(=O)=O)cc2)c1` came in with an IC50 in assay [1] of 18 nM.

`CC(=Cc1cccc(C(=N)N)c1)C(=O)Nc1ccc(-c2ccccc2S(N)(=O)=O)cc1` displayed an IC50 in assay [1] of 362 nM.

As for `CC(=C(F)C(=O)Nc1ccc(-c2ccccc2S(N)(=O)=O)cc1)c1cccc(C(=N)N)c1`, the IC50 in assay [1] is 1 nM; in assay [2], 3190 nM; in assay [3] it was 259 nM.

With `C/C(=C(\F)C(=O)Nc1ccc(-c2ccccc2S(N)(=O)=O)cc1F)c1cccc(C(=N)N)c1`, the IC50 in assay [1] worked out at 0.2 nM; in assay [2], 2200 nM; in assay [3], 194 nM. `COc1ccc(C(=N)N)cc1C=CC(=O)Nc1ccc(-c2ccccc2S(N)(=O)=O)cc1` returned an IC50 in assay [1] of 215 nM.

`CC(=C(F)C(=O)Nc1ccc(-c2ccccc2S(N)(=O)=O)cc1Br)c1cccc(C(=N)N)c1`: the figures for the IC50 in assay [1], in assay [2] and in assay [3] were 0.5 nM, 503 nM and 189 nM, respectively. `N=C(N)c1cccc(C=C(C(=O)Nc2ccc(-c3ccccc3S(N)(=O)=O)cc2)c2ccncc2)c1`: in assay [1], the IC50 came to 628 nM. `CC(=C(F)C(=O)Nc1ccc(-c2ccccc2S(N)(=O)=O)cc1Br)c1ccc(F)c(C(=N)N)c1` came in with an IC50 in assay [1] of 0.75 nM. Regarding `CS(=O)(=O)CC(=C(F)C(=O)Nc1ccc(-c2ccccc2S(N)(=O)=O)cc1)c1cccc(C(=N)N)c1`, the IC50 in assay [1] came to 10 nM.

On to `N=C(N)c1cccc(C=CC(=O)Nc2ccc(-c3ccccc3S(N)(=O)=O)cc2)c1` [listing 1 of 2 here], for which inhibition in assay [1] was half-maximal at 17 nM (IC50).

For the molecule `CC(C)C(=CC(=O)Nc1ccc(-c2ccccc2S(N)(=O)=O)cc1)c1cccc(C(=N)N)c1`, 35 nM corresponded to half-maximal inhibition in assay [1] (IC50). In the case of `N=C(N)c1cccc(C(=CC(=O)Nc2ccc(-c3ccccc3S(N)(=O)=O)cc2)Cn2cnnn2)c1`, inhibition in assay [1] was half-maximal at 53 nM (IC50). Take `CC(=C(F)C(=O)Nc1ccc(-c2ccccc2S(N)(=O)=O)cc1F)c1ccc(F)c(C(=N)N)c1`: the IC50 in assay [1] was 1.5 nM. `N=C(N)c1cccc(C(=CC(=O)Nc2ccc(-c3ccccc3S(N)(=O)=O)cc2)Cc2cc[nH]n2)c1`: half-maximal inhibition in assay [1] (IC50) required 48 nM. In assay [1], `CCSCC(=C(F)C(=O)Nc1ccc(-c2ccccc2S(N)(=O)=O)cc1)c1cccc(C(=N)N)c1` had an IC50 of 13 nM. The same measure, in the same setting: next, `N=C(N)c1cccc(C(=C(F)C(=O)Nc2ccc(-c3ccccc3S(N)(=O)=O)cc2)C(F)(F)F)c1`: 3 nM; `N=C(N)c1cc(C=CC(=O)Nc2ccc(-c3ccccc3S(N)(=O)=O)cc2)ccc1F`: 99 nM.

As to `CCC(=CC(=O)Nc1ccc(-c2ccccc2S(N)(=O)=O)cc1)c1cccc(C(=N)N)c1`, the IC50 in assay [1] turned out to be 7 nM. With `N=C(N)c1cccc(C(=CC(=O)Nc2ccc(-c3ccccc3S(N)(=O)=O)cc2)C(F)(F)F)c1`, the IC50 in assay [1] turned out to be 10 nM. For `N=C(N)c1cccc(C=CC(=O)Nc2ccc(-c3ccccc3S(N)(=O)=O)cc2)c1` [listing 2 of 2 here], in assay [4], the IC50 was found to be 3120 nM. Take `CC(C)CC(=CC(=O)Nc1ccc(-c2ccccc2S(N)(=O)=O)cc1)c1cccc(C(=N)N)c1`: in assay [1], the IC50 turned out to be 5 nM.

For `CC(=C(F)C(=O)Nc1ccc(-c2ccccc2S(N)(=O)=O)cc1Cl)c1cccc(C(=N)N)c1`, the IC50 was determined as 0.5 nM in assay [1], 650 nM in assay [2] and 188 nM in assay [3]. Turning to `COC(=O)C(=Cc1cccc(C(=N)N)c1)C(=O)Nc1ccc(-c2ccccc2S(N)(=O)=O)cc1`, 759 nM corresponded to half-maximal inhibition in assay [5] (IC50). What is called Ki is the dissociation constant of the complex between target and ligand, obtained from inhibition or displacement. Read a low Ki as tighter binding. As for `CC(=C(F)C(=O)Nc1ccc(-c2ccccc2S(N)(=O)=O)cc1Cl)c1ccc(F)c(C(=N)N)c1`, the IC50 in assay [1] was found to be 0.74 nM. In addition, in assay [6], the affinity, expressed as Ki, was 0.18 nM. Consider `CC(=C(CC(=O)O)C(=O)Nc1ccc(-c2ccccc2S(N)(=O)=O)cc1)c1cccc(C(=N)N)c1`, for which the IC50 in assay [1] came out at 234 nM. In assay [1], `COCC(=CC(=O)Nc1ccc(-c2ccccc2S(N)(=O)=O)cc1)c1cccc(C(=N)N)c1` displayed an IC50 of 7 nM. In assay [1], `N=C(N)c1cccc(C=C(C(=O)Nc2ccc(-c3ccccc3S(N)(=O)=O)cc2)c2ccccn2)c1` had an IC50 of 664 nM.

In assay [1], `CN(C)CC(=C(F)C(=O)Nc1ccc(-c2ccccc2S(N)(=O)=O)cc1F)c1cccc(C(=N)N)c1` displayed a half-inhibitory concentration (IC50) of 191 nM. `N=C(N)c1cccc(C(CO)=C(F)C(=O)Nc2ccc(-c3ccccc3S(N)(=O)=O)cc2)c1` had an IC50 in assay [1] of 3.7 nM. `CC(=C(F)C(=O)Nc1ccc(-c2ccccc2S(N)(=O)=O)cc1)c1ccc(F)c(C(=N)N)c1` showed an IC50 in assay [1] of 3.6 nM. Same read-out and setting: next, `C/C(=C(\F)C(=O)Nc1ccc(-c2ccccc2S(N)(=O)=O)cc1F)c1cc(C(=N)N)ccc1N`: 2.6 nM; `CC(=C(CC(N)=O)C(=O)Nc1ccc(-c2ccccc2S(N)(=O)=O)cc1)c1cccc(C(=N)N)c1`: 99 nM.

For `COCCOc1ccc(C(=N)N)cc1C=CC(=O)Nc1ccc(-c2ccccc2S(N)(=O)=O)cc1`, in assay [1], the IC50 was found to be 9 nM. In the case of `N=C(N)c1cccc(C(=CC(=O)Nc2ccc(-c3ccccc3S(N)(=O)=O)cc2)Cn2ncnn2)c1`, the IC50 in assay [1] was found to be 245 nM. On to `COc1ccc(C=CC(=O)Nc2ccc(-c3ccccc3S(N)(=O)=O)cc2)cc1C(=N)N`, for which the midpoint of inhibition in assay [1], the IC50, lay at 6470 nM.
